Active and inactive are the calls of the source. No cut-off for these calls is given here.
Legend:
[1] = biological target: Poly [ADP-ribose] polymerase 2 (Homo sapiens, UniProt Q9UGN5); assay: Inhibition of PARP2 (unknown origin)
[2] = biological target: T1, Poly [ADP-ribose] polymerase 1 (Homo sapiens, UniProt P09874)
Description: Inhibition of PARP1 (unknown origin)

MC-38 = assay: Antitumor activity against mouse MC38 cells implanted in C57BL/6 mouse assessed as increase in CD8+T cells in tumor at 10 mg/kg, po qd measured after 17 days by flow cytometry analysis; format: functional, organism-based; settings: time 17.0 day
[3] = biological target: Protein mono-ADP-ribosyltransferase PARP14 (Homo sapiens) (UniProt Q460N5); assay: Inhibition of human N-terminal GST/His-tagged recombinant PARP14 (1470 to 1801(end) residues) expressed in Sf9 cells at 1 uM relative to control
Felis catus [4] = species on record: Felis catus; assay: Binding affinity to cat PARP1 assessed as dissociative half-life by SPR assay
[5] = biological target: Protein mono-ADP-ribosyltransferase PARP15 (Homo sapiens) (UniProt Q460N3); assay: Inhibition of human N-terminal GST-tagged recombinant PARP15 (221 to 444(end) residues) expressed in Escherichia coli at 1 uM relative to control
Protein mono-ADP-ribosyltransferase PARP15 (Homo sapiens), sequence (Q460N3 whole entry): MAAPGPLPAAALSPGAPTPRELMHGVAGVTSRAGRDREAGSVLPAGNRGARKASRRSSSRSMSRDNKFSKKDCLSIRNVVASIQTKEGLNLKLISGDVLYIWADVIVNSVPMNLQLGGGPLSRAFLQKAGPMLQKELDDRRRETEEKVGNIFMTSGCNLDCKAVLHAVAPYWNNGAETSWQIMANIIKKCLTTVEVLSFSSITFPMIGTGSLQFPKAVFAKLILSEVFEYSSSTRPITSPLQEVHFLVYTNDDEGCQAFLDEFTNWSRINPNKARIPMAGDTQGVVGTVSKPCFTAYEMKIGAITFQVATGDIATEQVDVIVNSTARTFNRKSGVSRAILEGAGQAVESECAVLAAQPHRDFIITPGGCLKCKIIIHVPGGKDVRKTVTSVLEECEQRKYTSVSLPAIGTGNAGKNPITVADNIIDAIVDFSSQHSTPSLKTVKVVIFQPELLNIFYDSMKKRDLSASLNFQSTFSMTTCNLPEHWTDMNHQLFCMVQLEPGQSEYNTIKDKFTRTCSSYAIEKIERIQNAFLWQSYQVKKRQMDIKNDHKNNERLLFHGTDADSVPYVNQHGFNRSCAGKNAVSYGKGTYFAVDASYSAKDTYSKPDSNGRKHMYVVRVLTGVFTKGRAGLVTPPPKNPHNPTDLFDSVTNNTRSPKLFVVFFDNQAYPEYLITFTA

Felis catus [6] = species on record: Felis catus; assay: Binding affinity to cat PARP2 assessed as dissociative half-life by SPR assay
[7] = biological target: Protein mono-ADP-ribosyltransferase PARP11 (Homo sapiens) (UniProt Q9NR21); assay: Inhibition of human N-terminal FLAG-tagged/C-terminal His-tagged recombinant PARP11 (8 to 338 (end) residues) expressed in Sf9 cells at 1 uM relative to control
Protein mono-ADP-ribosyltransferase PARP11 (Homo sapiens), sequence (Q9NR21 whole entry): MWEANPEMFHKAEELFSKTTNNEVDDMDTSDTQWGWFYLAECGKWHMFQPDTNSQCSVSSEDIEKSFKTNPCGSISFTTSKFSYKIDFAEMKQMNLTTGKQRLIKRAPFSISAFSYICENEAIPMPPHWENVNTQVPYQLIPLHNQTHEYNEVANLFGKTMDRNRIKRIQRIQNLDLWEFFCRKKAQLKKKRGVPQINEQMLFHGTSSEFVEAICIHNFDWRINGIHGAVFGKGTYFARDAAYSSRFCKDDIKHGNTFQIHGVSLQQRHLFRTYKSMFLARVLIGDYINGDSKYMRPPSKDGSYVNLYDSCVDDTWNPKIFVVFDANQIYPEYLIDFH

THP-1 = assay: Inhibition of PARP1/2 mediated DNA repair pathway in human THP-1 cells assessed as induction of gamma-H2AX phosphorylation at 10 uM incubated for 24 hrs by immunoblotting analysis; format: cell-based
[8] = biological target: Poly [ADP-ribose] polymerase tankyrase-2 (Homo sapiens) (UniProt Q9H2K2); assay: Inhibition of human recombinant N-terminal GST-tagged TNKS2 (849 to 1166(end) residues) expressed in Sf9 cells at 1 uM relative to control
[9] = biological target: Poly [ADP-ribose] polymerase tankyrase-1 (Homo sapiens) (UniProt O95271); assay: Inhibition of human recombinant N-terminal GST-tagged TNKS1 (1001 to 1327(end) residues) expressed in Sf9 cells at 1 uM relative to control
Poly [ADP-ribose] polymerase tankyrase-1 (Homo sapiens), sequence (O95271 whole entry, the tested form may be a part): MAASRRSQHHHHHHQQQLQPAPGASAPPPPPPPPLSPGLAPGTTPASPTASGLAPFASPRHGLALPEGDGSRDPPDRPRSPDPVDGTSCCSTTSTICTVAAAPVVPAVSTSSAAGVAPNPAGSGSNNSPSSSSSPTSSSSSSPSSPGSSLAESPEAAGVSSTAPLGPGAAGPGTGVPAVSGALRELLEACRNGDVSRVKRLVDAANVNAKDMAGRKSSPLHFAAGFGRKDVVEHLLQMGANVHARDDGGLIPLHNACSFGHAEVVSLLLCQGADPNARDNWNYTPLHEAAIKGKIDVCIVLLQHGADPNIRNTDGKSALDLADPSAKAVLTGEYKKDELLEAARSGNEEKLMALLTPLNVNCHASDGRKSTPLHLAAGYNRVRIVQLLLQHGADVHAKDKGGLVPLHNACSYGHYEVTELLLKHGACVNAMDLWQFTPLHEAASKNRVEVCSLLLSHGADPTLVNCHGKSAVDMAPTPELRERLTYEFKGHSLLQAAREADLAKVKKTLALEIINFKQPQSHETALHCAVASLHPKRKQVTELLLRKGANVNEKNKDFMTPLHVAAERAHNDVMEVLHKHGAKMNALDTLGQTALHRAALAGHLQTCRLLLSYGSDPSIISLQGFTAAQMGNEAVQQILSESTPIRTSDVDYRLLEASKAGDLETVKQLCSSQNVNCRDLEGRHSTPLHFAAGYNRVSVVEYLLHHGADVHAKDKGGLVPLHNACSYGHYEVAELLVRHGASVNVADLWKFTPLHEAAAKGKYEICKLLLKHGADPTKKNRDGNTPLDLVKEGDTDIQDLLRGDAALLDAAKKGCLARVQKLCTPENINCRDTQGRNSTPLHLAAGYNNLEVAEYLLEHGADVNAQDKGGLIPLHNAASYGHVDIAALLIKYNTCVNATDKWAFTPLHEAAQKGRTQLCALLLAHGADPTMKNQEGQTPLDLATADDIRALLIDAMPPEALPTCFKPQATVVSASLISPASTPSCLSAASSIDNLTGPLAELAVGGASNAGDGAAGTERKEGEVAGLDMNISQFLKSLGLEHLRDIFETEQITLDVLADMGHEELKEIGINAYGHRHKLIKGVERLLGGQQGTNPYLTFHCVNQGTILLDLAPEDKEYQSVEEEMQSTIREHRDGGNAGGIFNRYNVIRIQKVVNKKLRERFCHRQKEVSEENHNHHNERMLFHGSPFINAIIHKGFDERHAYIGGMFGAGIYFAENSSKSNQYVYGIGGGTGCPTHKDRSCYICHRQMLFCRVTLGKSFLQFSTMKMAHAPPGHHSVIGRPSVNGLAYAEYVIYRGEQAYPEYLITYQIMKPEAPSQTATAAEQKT

[10] = biological target: Protein mono-ADP-ribosyltransferase PARP10 (Homo sapiens) (UniProt Q53GL7); assay: Inhibition of human N-terminal FLAG-tagged/C-terminal Strep-tagged recombinant PARP10 (805 to 1025 residues) expressed in Sf9 cells at 1 uM relative to control
Protein mono-ADP-ribosyltransferase PARP10 (Homo sapiens), sequence (Q53GL7 whole entry, the tested form may be a part): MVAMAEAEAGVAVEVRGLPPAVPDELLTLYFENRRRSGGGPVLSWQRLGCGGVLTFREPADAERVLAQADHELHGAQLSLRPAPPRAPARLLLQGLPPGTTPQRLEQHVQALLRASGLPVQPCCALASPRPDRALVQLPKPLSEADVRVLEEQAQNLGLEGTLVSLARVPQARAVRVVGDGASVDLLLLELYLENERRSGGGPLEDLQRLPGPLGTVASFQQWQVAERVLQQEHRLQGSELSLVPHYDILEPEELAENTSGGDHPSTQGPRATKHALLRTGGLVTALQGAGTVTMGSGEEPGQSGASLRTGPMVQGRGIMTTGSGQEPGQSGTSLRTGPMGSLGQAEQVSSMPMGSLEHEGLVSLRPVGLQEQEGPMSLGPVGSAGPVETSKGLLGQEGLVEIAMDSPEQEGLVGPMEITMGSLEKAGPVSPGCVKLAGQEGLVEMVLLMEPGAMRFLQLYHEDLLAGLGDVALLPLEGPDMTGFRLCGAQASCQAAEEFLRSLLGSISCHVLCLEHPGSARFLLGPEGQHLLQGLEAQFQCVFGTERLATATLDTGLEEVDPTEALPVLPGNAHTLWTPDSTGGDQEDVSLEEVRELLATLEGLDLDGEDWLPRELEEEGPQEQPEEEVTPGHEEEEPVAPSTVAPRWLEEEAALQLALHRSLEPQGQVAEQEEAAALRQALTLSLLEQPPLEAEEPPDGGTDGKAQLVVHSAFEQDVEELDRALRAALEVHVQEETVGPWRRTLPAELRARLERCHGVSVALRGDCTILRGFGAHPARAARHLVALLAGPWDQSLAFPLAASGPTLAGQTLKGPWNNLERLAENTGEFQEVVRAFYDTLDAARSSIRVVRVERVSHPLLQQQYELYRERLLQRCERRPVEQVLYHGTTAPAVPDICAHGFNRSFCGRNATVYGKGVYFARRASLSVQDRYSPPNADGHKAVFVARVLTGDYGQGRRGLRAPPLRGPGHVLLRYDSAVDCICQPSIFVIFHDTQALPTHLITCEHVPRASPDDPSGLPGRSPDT

[11] = biological target: Protein mono-ADP-ribosyltransferase TIPARP (Homo sapiens) (UniProt Q7Z3E1); assay: Inhibition of PARP7 in human THP-1 cells assessed as induction of TBK1 phosphorylation at 10 uM incubated for 24 hrs by immunoblotting analysis; format: cell-based
[12] = biological target: T1, Poly [ADP-ribose] polymerase 1; assay: Inhibition of human PARP1 in human MX1 cells assessed as enzyme-DNA trapping activity at 1 uM incubated for 24 hrs by Western blot analysis; format: cell-based
[13] = biological target: Protein mono-ADP-ribosyltransferase PARP12 (Homo sapiens) (UniProt Q9H0J9); assay: Inhibition of human N-terminal FLAG/His-tagged recombinant PARP12 (500 to 701(end) residues) expressed in Sf9 cells at 1 uM relative to control
Protein mono-ADP-ribosyltransferase PARP12 (Homo sapiens), sequence (Q9H0J9 whole entry): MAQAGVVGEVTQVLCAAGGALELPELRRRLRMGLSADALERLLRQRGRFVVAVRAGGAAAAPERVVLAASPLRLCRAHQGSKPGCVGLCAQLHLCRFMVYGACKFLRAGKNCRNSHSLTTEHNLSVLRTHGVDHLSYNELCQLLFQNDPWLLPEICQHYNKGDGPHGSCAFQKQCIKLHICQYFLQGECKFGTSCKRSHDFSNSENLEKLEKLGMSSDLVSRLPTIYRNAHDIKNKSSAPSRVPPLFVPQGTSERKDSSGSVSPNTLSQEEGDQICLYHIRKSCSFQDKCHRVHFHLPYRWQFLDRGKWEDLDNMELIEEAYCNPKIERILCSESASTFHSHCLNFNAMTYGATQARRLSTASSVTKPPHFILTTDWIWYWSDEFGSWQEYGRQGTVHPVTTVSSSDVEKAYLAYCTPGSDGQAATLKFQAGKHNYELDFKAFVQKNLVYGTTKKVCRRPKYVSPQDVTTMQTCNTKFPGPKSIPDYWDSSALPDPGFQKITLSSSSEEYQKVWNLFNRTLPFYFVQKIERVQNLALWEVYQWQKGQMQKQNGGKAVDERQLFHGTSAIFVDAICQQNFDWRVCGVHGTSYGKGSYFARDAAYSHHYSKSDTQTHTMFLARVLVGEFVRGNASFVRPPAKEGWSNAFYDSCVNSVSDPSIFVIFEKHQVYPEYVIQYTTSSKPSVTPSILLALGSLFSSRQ

T1 sequence (P09874 whole entry): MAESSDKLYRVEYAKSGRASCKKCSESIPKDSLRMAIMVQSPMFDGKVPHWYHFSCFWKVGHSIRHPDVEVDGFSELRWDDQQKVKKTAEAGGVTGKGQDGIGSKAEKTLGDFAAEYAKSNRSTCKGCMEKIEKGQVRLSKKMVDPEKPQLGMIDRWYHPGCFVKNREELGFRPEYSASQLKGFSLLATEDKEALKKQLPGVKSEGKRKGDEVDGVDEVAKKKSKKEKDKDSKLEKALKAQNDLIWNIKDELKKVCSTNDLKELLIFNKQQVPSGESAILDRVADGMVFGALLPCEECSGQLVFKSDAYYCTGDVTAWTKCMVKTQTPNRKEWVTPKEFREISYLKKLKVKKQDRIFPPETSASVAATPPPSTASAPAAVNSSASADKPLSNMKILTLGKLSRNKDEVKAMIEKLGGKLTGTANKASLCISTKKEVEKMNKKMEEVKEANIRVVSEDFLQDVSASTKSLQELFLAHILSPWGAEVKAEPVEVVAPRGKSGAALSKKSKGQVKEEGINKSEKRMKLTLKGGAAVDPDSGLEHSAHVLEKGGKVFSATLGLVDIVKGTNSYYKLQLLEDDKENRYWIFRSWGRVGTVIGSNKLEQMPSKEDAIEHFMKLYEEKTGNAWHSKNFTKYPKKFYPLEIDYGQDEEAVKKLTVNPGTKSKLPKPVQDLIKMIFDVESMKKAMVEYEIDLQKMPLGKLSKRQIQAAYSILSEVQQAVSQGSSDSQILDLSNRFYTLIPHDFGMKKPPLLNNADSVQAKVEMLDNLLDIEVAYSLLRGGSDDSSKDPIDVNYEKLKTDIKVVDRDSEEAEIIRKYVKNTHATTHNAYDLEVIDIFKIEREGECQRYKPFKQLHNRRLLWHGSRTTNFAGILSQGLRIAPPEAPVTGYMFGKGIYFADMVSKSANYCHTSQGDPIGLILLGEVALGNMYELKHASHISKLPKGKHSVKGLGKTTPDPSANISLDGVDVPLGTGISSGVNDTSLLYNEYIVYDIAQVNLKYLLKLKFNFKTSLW

Structure (SMILES): C[C@]12CCCN1CC1=NNC(=O)c3cc(F)cc4[nH]c2c1c34 [PAMIPARIB]
- IC50 [1]: 0.3 nM

Structure (SMILES): O=C(c1cc(Cc2n[nH]c(=O)c3ccccc23)ccc1F)N1CCn2c(nnc2-c2ccc(Br)o2)C1
- IC50 [2]: < 0.001 nM

Structure (SMILES): CCC(CC)N1CCN(C(=O)c2cc(Cn3c(=O)[nH]c(=O)c4ccccc43)ccc2F)CC1=O
- Activity (MC-38): Active
- inhibition [3]: inactive
- T1/2 (Felis catus [4]): 2.36 h
- inhibition [5]: 45%
- T1/2 (Felis catus [6]): 2.33 h
- inhibition [7]: inactive
- inhibition (THP-1): Active
- inhibition [8]: inactive
- inhibition [9]: inactive
- inhibition [10]: inactive
- inhibition [11]: Active
- PARP1-DNA trapping activity [12]: Active
- inhibition [13]: inactive

— ChEMBL document CHEMBL5370623, “Discovery of Quinazoline-2,4(1H,3H)-dione Derivatives Containing a Piperizinone Moiety as Potent PARP-1/2 Inhibitors─Design, Synthesis, In Vivo Antitumor Activity, and X-ray Crystal Structure Analysis” (J Med Chem, 2023)
